pIC50, pKi: −log10 of the molar value.
How the values were obtained:
ALK-wt = target: T1, ALK-wt (Homo sapiens, UniProt Q9UM73); experiment: Biochemical kinase assay, ALK-wt kinase domain; conditions: apparent inhibitory constant, Morrison equation; ATP 2 mM in substrate solution; read-out: ALK-wt Ki^app
T1 construct: purchased Carna 08-518
Outline: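 Apparent Ki values come from fitting initial reaction rates against inhibitor concentration to the Morrison equation. Rates were taken from the linear phase of fluorogenic substrate phosphorylation (AQT0101 for ALK and ROS1, AQT0104 for TRKA; 26 μM in substrate solution with 2 mM ATP), monitored at 485 nm over 120 min at 30° C.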

ALK L1196M/G1202R = target: T2, ALK L1196M/G1202R (Homo sapiens, UniProt Q9UM73, G1202R/L1196M); experiment: Biochemical kinase assay, ALK L1196M/G1202R kinase domain; conditions: apparent inhibitory constant, Morrison equation; ATP 2 mM in substrate solution; read-out: ALK-L1196M-G1202R Ki^app
T2 construct: purchased SignalChem A19-12NG
Outline: (§1)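 Kinase domains (in kinase solution: ROS1-G2032R 0.5 nM, ROS1-wt 0.6 nM, TRKA 1 nM, ALK L1196M/G1202R 3 nM) were mixed with compound and a substrate solution of 2 mM ATP plus 26 μM fluorogenic AQT0101 (ALK, ROS1) or AQT0104 (TRKA) in HEPES pH 7.5/MgCl2. Fluorescence was followed for 120 min at 30° C; Ki^app was obtained by Morrison fit of initial rates.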

ROS1-wt = target: T3, ROS1-wt (Homo sapiens, UniProt P08922); experiment: Biochemical kinase assay, ROS1-wt kinase domain; conditions: apparent inhibitory constant, Morrison equation; ATP 2 mM in substrate solution; read-out: ROS1-wt Ki^app
T3 construct: purchased Carna 08-163
Outline: (§2)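 Compounds, as 100-fold DMSO stocks, were dispensed first, then substrate mix was added (ATP 2 mM, AQT0101 26 μM, in 50 mM HEPES pH 7.5/10 mM MgCl2). Reactions ran at 30 °C with fluorescence logged every 2 min over 120 min. Apparent inhibition constants came from fitting rates to Morrison's tight-binding equation.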

ROS1-G2032R = target: T4, ROS1-G2032R (Homo sapiens, UniProt P08922, G2032R); experiment: Biochemical kinase assay, ROS1-G2032R kinase domain; conditions: apparent inhibitory constant, Morrison equation; ATP 2 mM in substrate solution; read-out: ROS1-G2032R Ki^app
T4 construct: purchased SignalChem R14-12BG
Outline: as §2

TRKA-wt = target: T5, TRKA-wt (Homo sapiens, UniProt P04629); experiment: Biochemical kinase assay, TRKA-wt kinase domain; conditions: apparent inhibitory constant, Morrison equation; ATP 2 mM in substrate solution; read-out: TRKA-wt Ki^app
T5 construct: or TRKA-wt (1 nM, BPS Bio, 40280) kinase domains in buffer; purchased BPS Bio 40280
Outline: as §1

[1] = target: T6, Ba/F3 cells CD74-ROS1 wild-type (wt) (Homo sapiens, UniProt P08922); experiment: Ba/F3 cell proliferation assay, CD74-ROS1 wild-type; format: cell-based; conditions: 72 hours, CellTiter-Glo
T6 construct: fusion of the C-terminus of ROS1 with the N-terminus of various partner proteins; host or cells: Ba/F3 (RIKEN), retroviral pMSCV-puro; the other entry of the earlier key: CD74 (P04233, HLA class II histocompatibility antigen gamma chain)
Outline: (§3)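 Cells seeded 1 day, then treated with 3-fold compound dilutions for 72 h; viability by CellTiter-Glo luminescence. IC50 from percent inhibition by four-parameter logistic fit.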

[2] = target: T7, Ba/F3 cells CD74-ROS1 G2032R (Homo sapiens, UniProt P08922, G2032R); experiment: Ba/F3 cell proliferation assay, CD74-ROS1 G2032R; format: cell-based; conditions: 72 hours, CellTiter-Glo
T7 construct: fusion of the C-terminus of ROS1 with the N-terminus of various partner proteins; host or cells: Ba/F3 (RIKEN), retroviral pMSCV-puro; the other entry of the earlier key: CD74 (P04233, HLA class II histocompatibility antigen gamma chain)
Outline: as §3

[3] = target: T8, Ba/F3 cells EML4-ALK wt (variant 1) (Homo sapiens, UniProt Q9UM73); experiment: Ba/F3 cell proliferation assay, EML4-ALK wt (variant 1); format: cell-based; conditions: 72 hours, CellTiter-Glo
T8 construct: echinoderm microtubule-associated protein-like 4 (EML4) gene and the ALK tyrosine kinase domain; host or cells: Ba/F3 (RIKEN), retroviral pMSCV-puro; the other entry of the earlier key: EML4 (Q9HC35, Echinoderm microtubule-associated protein-like 4)
Outline: (§4)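 Luminescence from CellTiter-Glo after 72 hours of compound exposure measured viability of IL-3-independent Ba/F3 cells carrying the retrovirally introduced fusion. Cells were plated at 1,000 per well one day before 3-fold serial dilutions were added. IC50 values came from four-parameter logistic regression.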

[4] = target: T9, Ba/F3 cells EML4-ALK L1196M/G1202R (variant 1) (Homo sapiens, UniProt Q9UM73, G1202R/L1196M); experiment: Ba/F3 cell proliferation assay, EML4-ALK L1196M/G1202R (variant 1); format: cell-based; conditions: 72 hours, CellTiter-Glo
T9 construct: echinoderm microtubule-associated protein-like 4 (EML4) gene and the ALK tyrosine kinase domain; host or cells: Ba/F3 (RIKEN), retroviral pMSCV-puro; the other entry of the earlier key: EML4 (Q9HC35, Echinoderm microtubule-associated protein-like 4)
Outline: as §4

Ba/F3 cells TPM3-TRKA = target: T10, Ba/F3 cells TPM3-TRKA (Homo sapiens, UniProt P04629); experiment: Ba/F3 cell proliferation assay, TPM3-TRKA; format: cell-based; conditions: 72 hours, CellTiter-Glo, read-out: TPM3-NTRK1-wt IC50
T10 construct: host or cells: Ba/F3 (RIKEN), retroviral pMSCV-puro; the other entry of the earlier key: TPM3 (P06753, Tropomyosin alpha-3 chain)
Outline: as §4

[5] = test system: TPM3-NTRK1-wt IC50 / primary target IC50 (e.g. CD74-ROS1-wt); experiment: TRKA selectivity in Ba/F3 cells (TRKA potency divided by primary target potency); format: cell-based; conditions: for TPM3-NTRK1-wt/CD74-ROS1-G2032R selectivity ratio: TRKA potency / CD74-ROS1-G2032R potency; for TPM3-NTRK1-wt/CD74-ROS1-wt selectivity ratio: TRKA potency / CD74-ROS1-wt potency; for TPM3-NTRK1-wt/EML4-ALK-L1196M-G1202R selectivity ratio: TRKA potency / EML4-ALK-L1196M-G1202R potency; for TPM3-NTRK1-wt/EML4-ALK-wt selectivity ratio: TRKA potency / EML4-ALK-wt potency
Protocol: TRKA selectivity was calculated by dividing a compound's TRKA potency by its primary target potency (e.g. TPM3-NTRK1-wt IC50/CD74-ROS1-wt IC50). Compound selectivity can be interpreted by binning ratio values: bin A for very high selectivity, ratio >30-fold; bin B for high selectivity, ratio >10-fold; bin C for moderate selectivity, ratio ≥1; and bin D for low selectivity, ratio <1. […] (nd=not determined).

T6 sequence (P08922 1883-2347 limits assumed): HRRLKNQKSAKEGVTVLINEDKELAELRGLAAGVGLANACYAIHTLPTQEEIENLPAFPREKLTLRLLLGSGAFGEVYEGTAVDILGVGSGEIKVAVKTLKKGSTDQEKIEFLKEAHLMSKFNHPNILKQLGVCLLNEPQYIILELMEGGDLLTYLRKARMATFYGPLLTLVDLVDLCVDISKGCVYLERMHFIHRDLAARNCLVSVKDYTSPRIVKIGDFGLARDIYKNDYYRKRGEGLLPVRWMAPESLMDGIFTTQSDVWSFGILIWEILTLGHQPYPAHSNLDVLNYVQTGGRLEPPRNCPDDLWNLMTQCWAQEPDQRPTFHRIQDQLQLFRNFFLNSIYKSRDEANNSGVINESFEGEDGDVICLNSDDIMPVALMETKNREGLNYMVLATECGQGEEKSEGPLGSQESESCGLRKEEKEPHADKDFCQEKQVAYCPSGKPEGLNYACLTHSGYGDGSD
T3 sequence (P08922 1945-2222 limits assumed): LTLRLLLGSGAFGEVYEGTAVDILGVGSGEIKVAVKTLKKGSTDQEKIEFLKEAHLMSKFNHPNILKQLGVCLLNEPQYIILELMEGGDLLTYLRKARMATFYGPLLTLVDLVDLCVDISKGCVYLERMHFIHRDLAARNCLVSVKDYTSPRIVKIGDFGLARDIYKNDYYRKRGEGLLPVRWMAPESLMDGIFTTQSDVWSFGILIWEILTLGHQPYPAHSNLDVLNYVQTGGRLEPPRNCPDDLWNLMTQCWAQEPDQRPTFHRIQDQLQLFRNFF
T9 sequence (Q9UM73 with tags, fused parts or gaps L1196M/G1202R): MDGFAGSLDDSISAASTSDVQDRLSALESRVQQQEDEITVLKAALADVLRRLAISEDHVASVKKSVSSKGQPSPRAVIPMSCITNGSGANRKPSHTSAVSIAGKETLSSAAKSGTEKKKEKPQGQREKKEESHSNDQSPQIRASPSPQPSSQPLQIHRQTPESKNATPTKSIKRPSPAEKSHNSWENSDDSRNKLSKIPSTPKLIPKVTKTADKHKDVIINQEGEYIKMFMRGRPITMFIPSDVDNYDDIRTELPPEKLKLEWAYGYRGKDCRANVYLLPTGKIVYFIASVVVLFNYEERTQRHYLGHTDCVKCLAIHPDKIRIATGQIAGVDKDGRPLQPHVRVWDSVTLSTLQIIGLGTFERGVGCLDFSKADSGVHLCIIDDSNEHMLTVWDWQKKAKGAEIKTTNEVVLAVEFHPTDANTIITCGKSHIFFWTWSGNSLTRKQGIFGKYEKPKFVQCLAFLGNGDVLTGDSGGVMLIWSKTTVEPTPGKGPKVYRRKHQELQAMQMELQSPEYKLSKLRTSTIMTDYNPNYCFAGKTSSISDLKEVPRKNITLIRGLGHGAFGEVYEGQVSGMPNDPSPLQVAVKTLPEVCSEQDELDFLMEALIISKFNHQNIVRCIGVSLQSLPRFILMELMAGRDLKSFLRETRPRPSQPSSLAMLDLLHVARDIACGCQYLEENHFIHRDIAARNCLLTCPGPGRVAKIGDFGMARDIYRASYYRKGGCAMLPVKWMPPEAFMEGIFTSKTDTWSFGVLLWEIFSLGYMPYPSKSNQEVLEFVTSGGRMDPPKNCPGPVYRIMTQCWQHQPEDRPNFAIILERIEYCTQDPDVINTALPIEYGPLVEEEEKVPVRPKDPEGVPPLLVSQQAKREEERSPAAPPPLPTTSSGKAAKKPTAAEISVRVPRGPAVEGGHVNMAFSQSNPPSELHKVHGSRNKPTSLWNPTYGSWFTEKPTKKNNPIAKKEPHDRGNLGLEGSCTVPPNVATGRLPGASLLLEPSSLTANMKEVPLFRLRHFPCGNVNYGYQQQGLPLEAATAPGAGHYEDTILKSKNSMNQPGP
T7 sequence (P08922 1883-2347 G2032R limits assumed): as the sequence (P08922 1883-2347 limits assumed) above, with G150R counted along it
T5 sequence (P04629 510-781 limits assumed): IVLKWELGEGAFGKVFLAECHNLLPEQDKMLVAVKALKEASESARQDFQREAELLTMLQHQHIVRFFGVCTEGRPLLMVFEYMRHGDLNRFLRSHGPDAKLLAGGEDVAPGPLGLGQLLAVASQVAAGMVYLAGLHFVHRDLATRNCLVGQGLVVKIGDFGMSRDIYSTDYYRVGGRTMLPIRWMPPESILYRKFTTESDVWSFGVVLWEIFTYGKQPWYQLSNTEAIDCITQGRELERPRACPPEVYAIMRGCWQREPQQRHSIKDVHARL
T8 sequence (Q9UM73 with tags, fused parts or gaps): as the sequence (Q9UM73 with tags, fused parts or gaps L1196M/G1202R) above, with M635L, R641G counted along it
T2 sequence (Q9UM73 1116-1392 L1196M/G1202R limits assumed): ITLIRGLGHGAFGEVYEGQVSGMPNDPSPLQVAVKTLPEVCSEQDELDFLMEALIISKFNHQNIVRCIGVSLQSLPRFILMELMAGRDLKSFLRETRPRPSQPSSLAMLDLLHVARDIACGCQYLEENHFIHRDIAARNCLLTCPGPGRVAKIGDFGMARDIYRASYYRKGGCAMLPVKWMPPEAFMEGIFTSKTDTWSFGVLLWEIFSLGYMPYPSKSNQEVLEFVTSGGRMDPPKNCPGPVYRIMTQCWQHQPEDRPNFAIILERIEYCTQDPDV
T10 sequence (P04629 510-796 limits assumed): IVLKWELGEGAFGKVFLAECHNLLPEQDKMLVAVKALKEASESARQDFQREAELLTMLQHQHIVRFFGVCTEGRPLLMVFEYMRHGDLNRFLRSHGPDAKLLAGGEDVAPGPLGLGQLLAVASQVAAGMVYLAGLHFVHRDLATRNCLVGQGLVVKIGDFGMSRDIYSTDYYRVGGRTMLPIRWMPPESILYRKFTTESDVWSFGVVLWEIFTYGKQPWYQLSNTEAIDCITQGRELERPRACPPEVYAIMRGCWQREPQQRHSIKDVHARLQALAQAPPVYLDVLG
T4 sequence (P08922 1945-2222 G2032R limits assumed): as the sequence (P08922 1945-2222 limits assumed) above, with G88R counted along it
T1 sequence (Q9UM73 1116-1392 limits assumed): as the sequence (Q9UM73 1116-1392 L1196M/G1202R limits assumed) above, with M81L, R87G counted along it

SMILES	pKi (ALK-wt)	pKi (ALK L1196M/G1202R)	pKi (ROS1-wt)	pKi (ROS1-G2032R)	pKi (TRKA-wt)	pIC50 [1]	pIC50 [2]	pIC50 [3]	pIC50 [4]	pIC50 (Ba/F3 cells TPM3-TRKA)	TPM3-NTRK1-wt/CD74-ROS1-G2032R selectivity ratio [5]	TPM3-NTRK1-wt/CD74-ROS1-wt selectivity ratio [5]	TPM3-NTRK1-wt/EML4-ALK-L1196M-G1202R selectivity ratio [5]	TPM3-NTRK1-wt/EML4-ALK-wt selectivity ratio [5]
C[C@H]1Oc2cc(cnc2N)-c2c(cnn2C2CC2)Cc2nn(C)nc2-c2ccc(F)cc21 [Example 14, (19R)-3-cyclopropyl-16-fluoro-10,19-dimethyl-20-oxa-3,4,9,10,11,23-hexaazapentacyclo[19.3.1.0^2,^6.0^8,^12.0^13,^18]pentacosa-1(24),2(6),4,8,11,13,15,17,21(25),22-decaen-22-amine]	> 7.30	> 7.30	> 7.30	> 7.30	6.30 to 7.30	7.30 to 10.00	7.30 to 10.00	7.30 to 10.00	6.30 to 7.30	6.30 to 7.30	A (bin A for very high selectivity, ratio >30-fold)	A (bin A for very high selectivity, ratio >30-fold)	C (bin C for moderate selectivity, ratio ≥1)	A (bin A for very high selectivity, ratio >30-fold)
Cc1cc2n(n1)Cc1cnn(CCF)c1-c1cnc(N)c(c1)O[C@H](C)c1cc(F)ccc1-2 [Example 92, (19R)-16-fluoro-3-(2-fluoroethyl)-10,19-dimethyl-20-oxa-3,4,8,9,23-pentaazapentacyclo[19.3.1.0^2,^6.0^8,^12.0^13,^18]pentacosa-1(24),2(6),4,9,11,13,15,17,21(25),22-decaen-22-amine]	> 7.30	> 7.30	> 7.30	> 7.30	< 6.30	7.30 to 10.00	7.30 to 10.00	7.30 to 10.00	6.30 to 7.30	6.30 to 7.30	A (bin A for very high selectivity, ratio >30-fold)	A (bin A for very high selectivity, ratio >30-fold)	C (bin C for moderate selectivity, ratio ≥1)	B (bin B for high selectivity, ratio >10-fold)
C[C@H]1Oc2cc(cnc2N)-c2c(C#N)ncn2Cc2ncc(F)cc2-c2ccc(F)cc21 [Example 48, (20R)-23-amino-11,17-difluoro-20-methyl-21-oxa-4,6,9,24-tetraazapentacyclo[20.3.1.0^2,^6.0^8,^13.0^14,^19]hexacosa-1(25),2,4,8(13),9,11,14,16,1 8,22(26),23-undecaene-3-carbonitrile]	> 7.30	> 7.30	> 7.30	> 7.30	6.30 to 7.30	7.30 to 10.00	7.30 to 10.00	7.30 to 10.00	7.30 to 10.00	< 6.30	A (bin A for very high selectivity, ratio >30-fold)	A (bin A for very high selectivity, ratio >30-fold)	B (bin B for high selectivity, ratio >10-fold)	A (bin A for very high selectivity, ratio >30-fold)
Cc1nn(CC2CC2)c2c1Cc1nn(C)nc1-c1ccc(F)cc1[C@@H](C)Oc1cc-2cnc1N [Example 65]	> 7.30	> 7.30	> 7.30	> 7.30	< 6.30	7.30 to 10.00	7.30 to 10.00	7.30 to 10.00	7.30 to 10.00	< 6.30	A (bin A for very high selectivity, ratio >30-fold)	A (bin A for very high selectivity, ratio >30-fold)	A (bin A for very high selectivity, ratio >30-fold)	A (bin A for very high selectivity, ratio >30-fold)
CCn1ncc2c1-c1cnc(N)c(c1)O[C@H](C)c1cc(F)ccc1-c1cc(Cl)nn1C2 [Example 16, (19R)-10-chloro-3-ethyl-16-fluoro-19-methyl-20-oxa-3,4,8,9,23-pentaazapentacyclo[19.3.1.0^2,^6.0^8,^12.0^13,^18]pentacosa-1(24),2(6),4,9,11,13,15,17,21(25),22-decaen-22-amine]	> 7.30	> 7.30	> 7.30	> 7.30	> 7.30	7.30 to 10.00	7.30 to 10.00	7.30 to 10.00	7.30 to 10.00	6.30 to 7.30	A (bin A for very high selectivity, ratio >30-fold)	A (bin A for very high selectivity, ratio >30-fold)	C (bin C for moderate selectivity, ratio ≥1)	B (bin B for high selectivity, ratio >10-fold)
C[C@H]1Oc2cc(cnc2N)-c2c(cnn2C2CCC2)Cc2ncnn2-c2ccc(F)cc21 [Example 41, (19R)-3-cyclobutyl-16-fluoro-19-methyl-20-oxa-3,4,9,11,12,23-hexaazapentacyclo[19.3.1.0^2,^6.0^8,^12.0^13,^18]pentacosa-1(24),2(6),4,8,10,13,15,17,21(25),22-decaen-22-amine]	> 7.30	> 7.30	> 7.30	> 7.30	< 6.30	7.30 to 10.00	7.30 to 10.00	7.30 to 10.00	7.30 to 10.00	< 6.30	A (bin A for very high selectivity, ratio >30-fold)	A (bin A for very high selectivity, ratio >30-fold)	B (bin B for high selectivity, ratio >10-fold)	A (bin A for very high selectivity, ratio >30-fold)
